“Also recorded” adds a separate entry of the source.
Assays:
[1] = system: Mytilus galloprovincialis plantigrades; assay: Anti-settlement bioassay with mussel plantigrades (effectiveness and mortality); type: in vivo; conditions: for Anti-settlement activity in screening (result in words): 250 and 50 μM, versus negative control, p < 0.05 Dunnett
Experimental: M. galloprovincialis juvenile (0.5 cm shell length approximately) aggregates were collected from mussel beds from the intertidal rocky shore, during low neap tides at Memória beach, Matosinhos, Portugal (41°13′59″N; 8°43′28″W), and immediately transported to the laboratory. M. galloprovincialis plantigrade post-larvae (0.5–2 mm) were screened among the small mussel aggregates in a binocular magnifier (Olympus SZX2-ILLT), gently washed with filtered seawater to remove organic debris and sand particles and isolated in a petri dish with filtered seawater immediately before the bioassays.
For the screening bioassay, competent M. galloprovincialis plantigrades (showing exploring behavior, ie, moving their foot searching for the appropriate substrate to settle) were selected and exposed to the series of sulfated compounds 1–13 at two concentrations (250 and 50 μM) in 24-well microplates for 15 h, at 18 ± 1 °C, in the darkness. Bioassays time frame was selected based on preliminary bioassays to ensure that the response measured is reflecting the compounds effect. Test solutions were prepared in filtered seawater (previously treated by UV light, and carbon filters and mechanically filtered with […] filter before use) and obtained by dilution of the compounds stock solutions (50 mM) in ultra-pure water. Four well replicates were used per condition with five plantigrades per well and 2.5 mL of test solution. A negative control, with ultra-pure water was included in all bioassays, as well as a positive control with 5 μM CuSO4 (a potent AF agent). At the end of the exposure period, the anti-settlement activity was determined by the presence/absence of byssal threads produced by each individual efficiently attached for all the conditions tested.
Data from the anti-settlement and antibacterial screenings were analyzed using a one-way analysis of variance (ANOVA) followed by a Dunnett test against the control (p < 0.05). Semi-maximum response concentration that inhibited 50% larval settlement (EC50), semi-maximum response concentration that inhibited 20% bacterial growth (EC20) and the median lethal dose (LC50) for each bioactive compound were assessed using Probit regression analysis. Pearson Goodness-of-fit (Chi-Square) significance was considered at p < 0.05 for all analyses, and 95% lower and upper confidence limits [95% LCL; UCL] were presented. Therapeutic ratio (LC50/EC50) was used to evaluate the effectiveness vs toxicity of compounds[31][53][54]. The software IBM SPSS Statistics 21 was used for statistical analysis.

[2] = system: Vibrio fischeri (NRRL-B-11177); assay: Luminescent Vibrio fischeri ecotoxicity assay (ISO11348); type: cell-based; conditions: V. fischeri luminescence, 30 min contact
Experimental: After 5, 15 and 30 min of exposure, the light emitted as a by-product of Vibrio fischeri cellular respiration was measured at 490 nm. Any inhibition of cellular activity results in a decreased rate of respiration and a corresponding decrease in the rate of luminescence. The decrease of bacterial luminescence measured after 5, 15 or 30 min of exposition was used as test endpoint. Luminescence was measured using a LUMIStox photometer from DR LANGE, after a contact time of 15 min and 30 min at 15 ± 1 °C, taking into account a correction factor, fk, which is a measure of intensity change of control samples during the exposure time.
The pH of all samples was within the interval 6.0–8.5.

## C[C@@H]1O[C@@H](OC[C@H]2O[C@@H](Oc3c(-c4ccc(OCCOS(=O)(=O)O)c(OCCOS(=O)(=O)O)c4)oc4cc(OCCOS(=O)(=O)O)cc(O)c4c3=O)[C@H](OS(=O)(=O)O)[C@@H](OS(=O)(=O)O)[C@@H]2OS(=O)(=O)O)[C@H](OS(=O)(=O)O)[C@H](OS(=O)(=O)O)[C@H]1OS(=O)(=O)O [Compound 3, 3″,4″-bis(2-sulfateethoxy)-7-(2-sulfateethoxy)-rutin 2″,2″′,3′,3″′,4′,4″′,7-sulfate]
[1]; 15 h
  Anti-settlement activity in screening (result in words): did not show notable activity

## O=c1c2ccc(OCc3cn([C@@H]4O[C@H](COS(=O)(=O)O)[C@H](OS(=O)(=O)O)[C@H](OS(=O)(=O)O)[C@H]4OS(=O)(=O)O)nn3)cc2oc2cc(OCc3cn([C@@H]4O[C@H](COS(=O)(=O)O)[C@H](OS(=O)(=O)O)[C@H](OS(=O)(=O)O)[C@H]4OS(=O)(=O)O)nn3)ccc12 [Compound 7, 3,6-bis(1-(1-(β-D-galatopyranosyl)-1H-1,2,3-triazole-4-yl)methoxy)xanthone persulfate]
[1]; 15 h
  Anti-settlement activity in screening (result in words): not active

## O=C(/C=C/c1ccc(OS(=O)(=O)O)c(OS(=O)(=O)O)c1)O[C@@H]1C[C@](OS(=O)(=O)O)(C(=O)O)C[C@@H](OS(=O)(=O)O)[C@H]1OS(=O)(=O)O [Compound 13, chlorogenic acid persulfate]
[1]; 15 h
  Anti-settlement activity in screening (result in words): much less potent than compound 12

## C[C@@H]1O[C@@H](OC[C@H]2O[C@@H](Oc3c(-c4ccc(O)c(O)c4)oc4cc(O)cc(O)c4c3=O)[C@H](O)[C@@H](O)[C@@H]2O)[C@H](O)[C@H](O)[C@H]1O [Compound 14, rutin, reference compound]
[1]; 15 h
  Anti-settlement activity in screening (result in words): did not show significant anti-settlement activity; also recorded: not active

## O=C(O)c1cc(O)c(O)c(O)c1 [Compound 15, gallic acid, reference compound]
[1]; 15 h
  Anti-settlement activity in screening (result in words): did not show significant anti-settlement activity; also recorded: not active

## N#Cc1c(-c2ccc(Cl)cc2)[nH]c(C(F)(F)F)c1Br [ECONEA®]
[1]; all tested concentrations up to 500 μM
  Mortality/toxicity to target species plantigrades: showed some toxicity at the higher concentrations tested
[1]; mortality of plantigrades, 15 h, up to 500 μM, read-out: LC50, the median lethal dose
  LC50: 108 µM
[1]; plantigrades, 15 h, 18 °C
  EC50, minimum concentration that inhibited 50% of larval settlement: 1.40 µg/mL
[1]; plantigrades, 15 h, 18 °C, 1.56–500 μM, read-out: EC50, minimum concentration that inhibited 50% of larval settlement
  EC50: 4.01 µM

## [K+].[K+].[O]=[Cr](=[O])([O-])[O][Cr](=[O])(=[O])[O-] [K2Cr2O7, Potassium dichromate, reference compound]
[2]
  EC50 30min: 5.67 µg/mL
  EC80 30min: 16.73 µg/mL

From publication PMC5304334, “Antifouling potential of Nature-inspired sulfated compounds” (Scientific Reports, 2017)
